System: panel of cancer cell lines
Assay: Cell viability (CellTiter-Glo) dose-response across cancer cell line panel;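 note: after 72 h compound incubation with CellTiter-Glo ATP readout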
Type: cell-based, human
Conditions: Homo sapiens
From the text: Next, we explored the effect of CSN5 inhibition on the viability of cancer cells. To obtain a comprehensive picture, we generated dose–response curves with a CSN5 inhibitor across more than 500 cancer cell lines in a previously described standardized setting[47] (Supplementary Data 1).
A standardized CellTiter-Glo Assay (Promega #G7570) based on the quantification of ATP was applied according to the manufacturer's protocol to measure the amount of viable cells in culture. In brief, cells were seeded into 384-well plates at optimal density for each cell line. After 4 h, compounds were added at different concentrations in growth medium and incubated for another 72 h in a humidifying chamber at 37 °C and 5% CO2. […] EC50 values were calculated from the plot of percentage of inhibition versus inhibitor concentration using the nonlinear regression analysis software Origin 7.5SR6 (OriginLab Corp.).

For `COCc1ccccc1NCc1ccc([C@H]2[C@@H](O)CCCc3cncn32)c(-c2ccccc2Cl)c1` [CSN5i-2, (5S,6S)-5-(2′-chloro-5-(((2-(methoxymethyl)phenyl)amino)methyl)-[1,1′-biphenyl]-2-yl)-6,7,8,9-tetrahydro-5H-imidazo[1,5-a]azepin-6-ol], the EC50 (HEC-50B) was 0.2 µM, the EC50 (HEC-108) was 3.13 µM and the EC50 (HEC-151) was 1.28 µM. The EC50 (HEC-251, HEC-251) was 0.513 µM, the EC50 (HEC-265) was 0.807 µM and the EC50 (HEL) was 0.404 µM. For the same molecule, the EC50 (HEL 92.1.7, HEL 92.1.7) was 0.491 µM, the EC50 (HEY A8, Hey-A8) was 1.99 µM and the EC50 (HL-60, HL-60) was 0.871 µM. It also gave an EC50 (HLC-1) of 3.33 µM, an EC50 (HLE) of 1.36 µM and an EC50 (HLF) of 0.697 µM. It also gave an EC50 (HMC-1-8) of 1.11 µM, an EC50 (HPAC) of 1.99 µM and an EC50 (HPBALL, HPB-ALL) of 1.02 µM. It also gave an EC50 (HRT-18, HRT-18) of 1.03 µM, an EC50 (HSC-2, HSC-2) of 0.892 µM and an EC50 (HSC-3, HSC-3) of 0.637 µM. The EC50 (HSC-4, HSC-4) was 1.05 µM, the EC50 (HT-29, HT-29) was 2.39 µM and the EC50 (HT-1080, HT-1080) was 0.407 µM. The EC50 (Hep3B) was 1.09 µM, the EC50 (Hep 3B2.1-7) was 1.8 µM and the EC50 (Hs 294T) was 1.95 µM. For the same molecule, the EC50 (Hs 695T) was 0.7 µM, the EC50 (Hs766T, Hs 766T) was 10.8 µM and the EC50 (Hs 852.T) was 2.2 µM. The EC50 (Hs 936.T) was 1.54 µM, the EC50 (Hs 944.T) was 0.778 µM and the EC50 (HuG1-N) was 14 µM. It also gave an EC50 (HuP-T3, HUP-T3) of 0.349 µM, an EC50 (Huh-7, HuH-7) of 0.309 µM and an EC50 (IGR-37, IGR-37) of 4.04 µM. For the same molecule, the EC50 (IGR-39, IGR-39) was 1.72 µM, the EC50 (IGROV-1, IGROV1) was 7.24 µM and the EC50 (IPC-298, IPC-298) was 1.23 µM. It also gave an EC50 (IST-MES2) of 0.609 µM, an EC50 (Ishikawa) of 1.55 µM and an EC50 (J82, J82) of 4.93 µM. The EC50 (JHH7, JHH-7) was 2.44 µM, the EC50 (JHH-4, JHH-4) was 0.388 µM and the EC50 (JHOS-2) was greater than 30 µM. It also gave an EC50 (JHUEM-2) of 0.912 µM, an EC50 (JHUEM-3) greater than 30 µM and an EC50 (JIMT-1, JIMT-1) of 22.6 µM. It also gave an EC50 (JL-1) of 0.718 µM, an EC50 (JU77) of 0.857 µM and an EC50 (JVM-2, JVM-2) of 0.553 µM. It also gave an EC50 (K029AX) of 3.06 µM, an EC50 (KARPAS-422, KARPAS-422) of 1.75 µM and an EC50 (KATO III) of 9.81 µM. The EC50 (KBM-7, KBM-7) was 0.229 µM, the EC50 (KCI-MOH1) was 0.797 µM and the EC50 (KE-97, KE-97) was 0.547 µM. It also gave an EC50 (KLE) of 1.26 µM, an EC50 (KM12, KM12) of 3.47 µM and an EC50 (KMM-1, KMM-1) of 0.685 µM. For the same molecule, the EC50 (KMRC-1, KMRC-1) was 1.89 µM, the EC50 (KMRC-20) was 0.788 µM and the EC50 (KMS-11, KMS-11) was 0.215 µM. The EC50 (KNS-60) was 6.14 µM, the EC50 (KNS-62, KNS-62) was 8.05 µM and the EC50 (KO52) was 0.861 µM. It also gave an EC50 (KP-1N) of 1.11 µM, an EC50 (KP-1NL) greater than 30 µM and an EC50 (KP-2) of 0.942 µM. For the same molecule, the EC50 (KP-3) was 1.89 µM, the EC50 (KP-4, KP4) was 1.21 µM and the EC50 (KS-1) was 9.04 µM. For the same molecule, the EC50 (KU-19-19, KU-19-19) was 1.97 µM, the EC50 (KURAMOCHI) was 0.392 µM and the EC50 (KYSE-30, KYSE-30) was 1.7 µM. The EC50 (KYSE-70, KYSE-70) was 6.04 µM, the EC50 (KYSE-150, KYSE-150) was 13.4 µM and the EC50 (KYSE-180, KYSE-180) was 2.15 µM. The EC50 (KYSE-410, KYSE-410) was 11 µM, the EC50 (Kasumi-3, Kasumi3) was 0.39 µM and the EC50 (Kasumi-6) was 4.46 µM. The EC50 (L3.3) was 1.39 µM, the EC50 (L-363, L-363) was 0.251 µM and the EC50 (L-428, L-428) was 0.59 µM. For the same molecule, the EC50 (LC-1/sq-SF) was 24 µM, the EC50 (LC-1F) was 6.99 µM and the EC50 (LC-2-ad, LC2/ad) was 3.57 µM. The EC50 (LCLC-103H) was 21.5 µM, the EC50 (LIM1899) was 0.884 µM and the EC50 (LIM2099) was 0.391 µM. The EC50 (LIM2405) was 2.38 µM, the EC50 (LIM2550) was 1.04 µM and the EC50 (LMSU) was 0.247 µM. It also gave an EC50 (LN-18, LN-18) of 0.708 µM, an EC50 (LN-229, LN-229) of 2.6 µM and an EC50 (LO68) of 3.37 µM. It also gave an EC50 (LOU-NH91, LOU-NH91) of 1.35 µM, an EC50 (LOX IMVI) of 0.952 µM and an EC50 (LP-1, LP-1) of 1.09 µM. It also gave an EC50 (LS180, LS 180) of 0.448 µM, an EC50 (LUDLU-1, LUDLU-1) of 3.41 µM and an EC50 (Li-7, Li-7) of 0.766 µM. For the same molecule, the EC50 (Lu-65, LU65) was 0.558 µM, the EC50 (Lu-99, LU99) was 0.25 µM and the EC50 (M-07e) was 7.18 µM. It also gave an EC50 (MCAS) of 0.692 µM, an EC50 (MCC13) of 0.846 µM and an EC50 (MCC14/2) of 0.282 µM. It also gave an EC50 (MCC26) of 1.44 µM, an EC50 (MDA-MB-134-VI) of 0.694 µM and an EC50 (MDA-MB-157, MDA-MB-157) of 2.49 µM. The EC50 (MDA-MB-175-VII) was 3.51 µM, the EC50 (MDA-MB-231, MDA-MB-231) was 1.58 µM and the EC50 (MDA-MB-435S) was 4.47 µM. The EC50 (MDA-MB-436, MDA-MB-436) was 0.387 µM, the EC50 (MDA-MB-453, MDA-MB-453) was 7.12 µM and the EC50 (MDA-MB-468, MDA-MB-468) was 5.94 µM. For the same molecule, the EC50 (MDST8, MDST8) was 1.39 µM, the EC50 (ME-180, ME180) was 0.63 µM and the EC50 (MEC1, MEC-1) was 0.517 µM. The EC50 (MEL-HO) was 10.5 µM, the EC50 (MEL-JUSO) was 11.2 µM and the EC50 (MES-SA) was 0.889 µM. For the same molecule, the EC50 (MFE-280, MFE-280) was 5.45 µM, the EC50 (MFE-296, MFE-296) was 0.518 µM and the EC50 (MFE-319) was 11.1 µM. It also gave an EC50 (MFM-223, MFM223) of 0.769 µM, an EC50 (MG-63, MG-63) of 0.478 µM and an EC50 (MIA PaCa-2, MIA PaCa-2) of 1.81 µM. For the same molecule, the EC50 (MINO) was 0.204 µM, the EC50 (MKN-1, MKN1) was 2.03 µM and the EC50 (MKN-45, MKN-45) was 1.71 µM. It also gave an EC50 (ML-2, ML-2) of 0.687 µM, an EC50 (MM127) of 0.508 µM and an EC50 (MM138) of 1.52 µM. The EC50 (MM170) was 11.4 µM, the EC50 (MM370) was 6.22 µM and the EC50 (MM383) was 1.19 µM. The EC50 (MM386) was 2.07 µM, the EC50 (MM415) was 1.37 µM and the EC50 (MM426) was 3.04 µM. For the same molecule, the EC50 (MM466) was 2.25 µM, the EC50 (MM473, MM473) was 2.22 µM and the EC50 (MM485) was 0.521 µM. It also gave an EC50 (MM537) of 2.63 µM, an EC50 (MM576) of 7.15 µM and an EC50 (MM603) of 0.286 µM.
